# Values quoted from earlier work, collected in patent publication US10449180B2, “Macrolide particulates, methods for preparation, and medical devices associated therewith” (Surmodics, Inc., priority 2013, dated 2019).
smiles,measurement,setting,value
"CO[C@H]1C[C@@H]2CC[C@@H](C)[C@@](O)(O2)C(=O)C(=O)N2CCCC[C@H]2C(=O)O[C@H]([C@H](C)C[C@@H]2CC[C@@H](O)[C@H](OC)C2)CC(=O)[C@H](C)/C=C(\C)[C@@H](O)[C@@H](OC)C(=O)[C@H](C)C[C@H](C)/C=C/C=C/C=C/1C [Rapamycin, rapamycin]","solubility in N,N-dimethylformamide","N,N-dimethylformamide",soluble
same,solubility in acetone,acetone,soluble
same,solubility in ether,ether,soluble
same,solubility in water,water,insoluble
